# According to patent publication US6867192B1, “Compounds useful in the treatment of inflammatory diseases” (priority 1998, dated 2005):
# Tested on: not listed separately
# Experiment: Solubility in water
# Assay type: physicochemical
# Settings: not given
row,solubility [µg/mL],SMILES
1,10,"Cc1ccccc1OCC(=O)N[C@@H](CC(C)C)C(=O)N[C@@H](Cc1ccc(OC(=O)N2CCC(C(N)=O)CC2)cc1)C(=O)O [Example 27, (2S)-3-[4-({[4-(Aminocarbonyl)-1-piperidinyl]carbonyl}oxy)phenyl]-2-[((2S)-4-methyl-2-{[2-(2-methylphenoxy)acetyl]amino}pentanoyl)amino]propanoic acid]"

# Molecular target: T1, integrin VLA-4, expressed on the Jurkat J6 (human lymphoblast cell line) cell membrane with VCAM-1 (Homo sapiens, UniProt P05556+P13612)
# T1 construct: integrin VLA-4, expressed on the Jurkat J6 (human lymphoblast cell line) cell membrane; endogenous in cells; host or cells: Jurkat J6 cells (integrin). zzVCAM-1 was made in house in Drosophila melanogaster S2 cells
# T1 sequence (P13612 34-1032): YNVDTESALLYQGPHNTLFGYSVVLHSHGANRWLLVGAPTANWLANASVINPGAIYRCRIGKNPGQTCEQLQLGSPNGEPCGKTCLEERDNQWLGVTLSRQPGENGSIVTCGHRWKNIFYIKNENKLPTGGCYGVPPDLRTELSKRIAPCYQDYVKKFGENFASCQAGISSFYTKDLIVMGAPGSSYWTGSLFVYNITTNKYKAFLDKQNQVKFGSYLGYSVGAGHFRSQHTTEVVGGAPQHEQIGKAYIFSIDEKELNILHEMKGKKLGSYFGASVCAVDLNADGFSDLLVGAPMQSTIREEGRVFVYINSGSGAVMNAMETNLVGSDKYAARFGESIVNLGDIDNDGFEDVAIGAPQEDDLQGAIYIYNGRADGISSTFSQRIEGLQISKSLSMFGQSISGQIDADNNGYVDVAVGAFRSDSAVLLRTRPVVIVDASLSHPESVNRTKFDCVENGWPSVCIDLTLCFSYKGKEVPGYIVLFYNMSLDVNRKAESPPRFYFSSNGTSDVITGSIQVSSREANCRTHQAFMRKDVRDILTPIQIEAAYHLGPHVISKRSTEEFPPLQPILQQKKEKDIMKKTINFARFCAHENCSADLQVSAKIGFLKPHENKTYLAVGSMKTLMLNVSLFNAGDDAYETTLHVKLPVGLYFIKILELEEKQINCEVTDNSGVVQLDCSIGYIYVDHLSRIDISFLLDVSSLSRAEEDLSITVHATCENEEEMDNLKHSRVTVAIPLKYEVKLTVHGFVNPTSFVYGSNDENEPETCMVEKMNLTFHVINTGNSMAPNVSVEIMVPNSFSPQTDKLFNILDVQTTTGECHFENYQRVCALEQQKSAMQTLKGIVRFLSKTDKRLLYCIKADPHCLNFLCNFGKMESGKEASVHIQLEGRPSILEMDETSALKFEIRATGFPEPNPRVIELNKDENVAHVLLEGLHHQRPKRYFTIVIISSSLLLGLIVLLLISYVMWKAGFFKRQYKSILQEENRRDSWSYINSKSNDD
# T1 sequence (P05556 21-798): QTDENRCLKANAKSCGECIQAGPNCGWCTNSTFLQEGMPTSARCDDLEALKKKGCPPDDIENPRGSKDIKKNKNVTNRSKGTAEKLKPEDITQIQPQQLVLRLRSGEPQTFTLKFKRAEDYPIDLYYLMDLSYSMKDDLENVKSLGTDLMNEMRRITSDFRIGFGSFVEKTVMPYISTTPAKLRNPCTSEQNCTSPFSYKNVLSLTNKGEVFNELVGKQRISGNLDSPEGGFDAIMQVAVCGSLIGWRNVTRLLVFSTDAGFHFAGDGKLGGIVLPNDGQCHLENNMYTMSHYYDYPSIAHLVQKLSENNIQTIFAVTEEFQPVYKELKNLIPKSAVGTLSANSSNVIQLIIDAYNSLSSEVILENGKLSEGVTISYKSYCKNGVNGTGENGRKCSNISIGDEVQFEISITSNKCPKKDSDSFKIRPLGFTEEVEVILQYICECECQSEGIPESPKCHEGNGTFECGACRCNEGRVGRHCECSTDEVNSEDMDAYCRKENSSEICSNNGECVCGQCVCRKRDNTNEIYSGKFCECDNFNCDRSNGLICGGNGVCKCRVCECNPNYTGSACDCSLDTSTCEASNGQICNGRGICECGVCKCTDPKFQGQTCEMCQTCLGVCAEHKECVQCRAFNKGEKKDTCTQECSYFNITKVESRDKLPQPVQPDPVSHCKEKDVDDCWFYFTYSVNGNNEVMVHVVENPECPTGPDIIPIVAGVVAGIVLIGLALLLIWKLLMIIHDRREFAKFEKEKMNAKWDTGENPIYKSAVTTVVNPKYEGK
# Experiment: Jurkat J6/VCAM-1 adhesion assay
# Assay type: cell-based
# Settings: Jurkat J6 cell adhesion to VCAM-1, 1 mM MnCl2; mean of n experiments
# How it was run: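 Jurkat J6 cells loaded with BCECF-AM were added with compound in HBSS with 1 mM MnCl2 to plates coated with IgG-captured zzVCAM-1 (seven-domain, S2-expressed) and left to adhere for 30 min at 37 °C. After washing, fluorescence was read. pIC50 came from a four-parameter fit between no compound and 2 mM EDTA.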
row,IC50 [nM],SMILES
1,3.24,"CC(=O)N1CCN(C(=O)Oc2ccc(C[C@H](NC(=O)[C@H](CC(C)C)NC(=O)COc3ccccc3C(C)(C)C)C(=O)O)cc2)CC1 [Example 16, (2S)-3-(4-{[(4-Acetyl-1-piperazinyl)carbonyl]oxy}phenyl)-2-{[(2S)-2-({2-[2-(tert-butyl)phenoxy]acetyl}amino)-4-methylpentanoyl]amino}propanoic acid]"
2,2.57,"CC(=O)N1CCN(C(=O)Oc2ccc(C[C@H](NC(=O)[C@H](CC(C)C)NC(=O)COc3ccccc3C)C(=O)O)cc2)CC1 [Example 17, (2S)-3-(4-{[(4-Acetyl-1-piperazinyl)carbonyl]oxy}phenyl)-2-[((2S)-4-methyl-2-{[2-(2-methylphenoxy)acetyl]amino}pentanoyl)amino]propanoic acid]"
3,14.8,"CC(C)C[C@H](NC(=O)COc1ccccc1C(C)(C)C)C(=O)N[C@@H](Cc1ccc(OC(=O)N2CCN(C(=O)c3ccccc3)CC2)cc1)C(=O)O [Example 20, (2S)-3-(4-{[(4-Benzoyl-1-piperazinyl)carbonyl]oxy}phenyl)-2-{[(2S)-2-({2-[2-(tert-butyl)phenoxy]acetyl}amino)-4-methylpentanoyl]amino}propanoic acid]"
4,3.89,"Cc1ccccc1OCC(=O)N[C@@H](CC(C)C)C(=O)N[C@@H](Cc1ccc(OC(=O)N2CCN(C(=O)c3ccccc3)CC2)cc1)C(=O)O [Example 21, (2S)-3-(4-{[(4-Benzoyl-1-piperazinyl)carbonyl]oxy}phenyl)-2-[((2S)-4-methyl-2-{[2-(2-methylphenoxy)acetyl]amino}pentanoyl)amino]propanoic acid]"
5,4.47,"CC(C)C[C@H](NC(=O)COc1ccccc1I)C(=O)N[C@@H](Cc1ccc(OC(=O)N2CCOCC2)cc1)C(=O)O [Example 23, (2S)-2-[((2S)-2-{[2-(2-Iodophenoxy)acetyl]amino}-4-methylpentanoyl)amino]-3-{4-[(4-morpholinylcarbonyl)oxy]phenyl}propanoic acid]"
6,6.03,"CC(C)C[C@H](NC(=O)COc1ccccc1C(C)(C)C)C(=O)N[C@@H](Cc1ccc(OC(=O)N2CCOCC2)cc1)C(=O)O [Example 24, (2S)-2-{[(2S)-2-({2-[2-(Tert-butyl)phenoxy]acetyl}amino)-4-methylpentanoyl]amino}-3-{4-[(4-morpholinylcarbonyl)oxy]phenyl}propanoic acid]"
7,2.82,"Cc1ccccc1OCC(=O)N[C@@H](CC(C)C)C(=O)N[C@@H](Cc1ccc(OC(=O)N2CCC(C(N)=O)CC2)cc1)C(=O)O [Example 27, (2S)-3-[4-({[4-(Aminocarbonyl)-1-piperidinyl]carbonyl}oxy)phenyl]-2-[((2S)-4-methyl-2-{[2-(2-methylphenoxy)acetyl]amino}pentanoyl)amino]propanoic acid]"
8,3.47,"CC(C)C[C@H](NC(=O)c1cccc2c1oc1ccccc12)C(=O)N[C@@H](Cc1ccc(OC(=O)N2CCC(C(N)=O)CC2)cc1)C(=O)O [Example 28, (2S)-3-[4-({[4-(Aminocarbonyl)-1-piperidinyl]carbonyl}oxy)phenyl]-2-({(2S)-2-[(dibenzo[b,d]furan-4-ylcarbonyl)amino]-4-methylpentanoyl}amino)propanoic acid]"
